Experimental findings from US20050220899A1, “Use of cisplatin in combination with folic acid for increasing cisplatin efficacy” (priority 2002, published 2005) are described below.

This experiment deals with mesothelioma. Briefly: Treatment of human mesothelioma patients with cisplatin with or without folic acid. The class given is in vivo. The settings on record: human patients exhibiting mesothelioma; 75-120 mg/m^2 of cisplatin.

As to `N.N.[Cl][Pt][Cl]` [cisplatin, cis-diamminedichloroplatinum], the median survival time came out at 7.2 months and the response rate came to 8.5%.
